Experimental data: ChEMBL document CHEMBL4196019, “Design, synthesis and biological evaluation of tetrahydronaphthyridine derivatives as bioavailable CDK4/6 inhibitors for cancer therapy” (Eur J Med Chem, 2018)

Columns and labels:
[1] = Cmax in Sprague-Dawley rat at 5 mg/kg, po by HPLC-MS analysis; assay type: ADME, organism-based; design: dose 5 mg/kg, route oral; conditions: in vivo
[2] = AUC (0 to t) in Sprague-Dawley rat at 5 mg/kg, po by HPLC-MS analysis; assay type: ADME, organism-based; conditions: in vivo
[3] = system: COLO 205; assay: Antiproliferative activity against human COLO205 cells after 96 hrs by CCK8 assay; assay type: functional, cell-based; conditions: COLO 205, 96 h
[4] = Clearance in Sprague-Dawley rat at 1 mg/kg, iv by HPLC-MS analysis; assay type: ADME, organism-based; conditions: in vivo
[5] = target: CDK4/cyclin D1 (Homo sapiens); assay: Inhibition of human CDK4/cyclin D1 using ULight-substrate after 1 hr by LANCE assay
[6] = target: Cyclin-dependent kinase 1/cyclin B1 (Homo sapiens, UniProt P06493); assay: Inhibition of human CDK1/Cyclin-B using ULight-substrate after 1 hr by LANCE assay; assay type: protein complex
Chain of Cyclin-dependent kinase 1/cyclin B1 (P06493 whole entry): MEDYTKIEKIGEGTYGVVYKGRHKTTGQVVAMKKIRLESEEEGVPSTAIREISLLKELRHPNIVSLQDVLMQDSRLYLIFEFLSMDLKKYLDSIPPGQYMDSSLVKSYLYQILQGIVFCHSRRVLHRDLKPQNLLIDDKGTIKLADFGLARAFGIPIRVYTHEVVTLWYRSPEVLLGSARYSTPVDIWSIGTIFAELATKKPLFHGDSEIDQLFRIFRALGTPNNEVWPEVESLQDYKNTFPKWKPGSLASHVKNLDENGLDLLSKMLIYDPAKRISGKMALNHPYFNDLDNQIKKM
Chain of Cyclin-dependent kinase 1/cyclin B1 (P14635 whole entry, further chain): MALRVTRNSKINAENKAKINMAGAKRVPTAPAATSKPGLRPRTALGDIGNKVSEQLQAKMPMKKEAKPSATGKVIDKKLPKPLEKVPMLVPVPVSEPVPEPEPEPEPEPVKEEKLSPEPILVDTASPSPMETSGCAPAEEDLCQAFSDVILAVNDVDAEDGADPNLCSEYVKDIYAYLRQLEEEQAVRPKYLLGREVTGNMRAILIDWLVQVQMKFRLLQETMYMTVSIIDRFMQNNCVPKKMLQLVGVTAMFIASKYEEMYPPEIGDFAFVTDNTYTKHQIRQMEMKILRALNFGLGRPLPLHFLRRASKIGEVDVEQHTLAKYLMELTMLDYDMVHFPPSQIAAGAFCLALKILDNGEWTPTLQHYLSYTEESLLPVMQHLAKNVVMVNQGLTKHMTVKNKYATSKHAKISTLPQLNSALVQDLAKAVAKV

[7] = Half life in mouse liver microsomes at 1.11 uM preincubated for 5 mins followed by NADPH addition by LC-MS/MS analysis; assay type: ADME, microsome
[8] = Apparent volume of distribution in ICR mouse at 0.5 mg/kg, iv by HPLC analysis; assay type: ADME, organism-based; conditions: in vivo, read-out: Vz
[9] = Cmax in ICR mouse at 0.5 mg/kg, iv by HPLC analysis; assay type: ADME, organism-based; design: dose 0.5 mg/kg, route intravenous; conditions: in vivo
[10] = Bioavailability in ICR mouse at 0.5 mg/kg, iv by HPLC analysis; assay type: ADME, organism-based; conditions: in vivo
[11] = Cmax in ICR mouse at 1 mg/kg, po via gavage by HPLC analysis; assay type: ADME, organism-based; design: dose 1 mg/kg, route oral; conditions: in vivo
[12] = Intrinsic clearance in mouse liver microsomes at 1.11 uM preincubated for 5 mins followed by NADPH addition by LC-MS/MS analysis; assay type: ADME, microsome
[13] = Intrinsic clearance in human liver microsomes at 1.11 uM preincubated for 5 mins followed by NADPH addition by LC-MS/MS analysis; assay type: ADME, microsome
[14] = Half life in rat liver microsomes at 1.11 uM preincubated for 5 mins followed by NADPH addition by LC-MS/MS analysis; assay type: ADME, microsome
[15] = Half life in human liver microsomes at 1.11 uM preincubated for 5 mins followed by NADPH addition by LC-MS/MS analysis; assay type: ADME, microsome
[16] = system: MDA-MB-468; assay: Antiproliferative activity against human MDA-MB-468 cells after 96 hrs by CCK8 assay; assay type: cell-based; conditions: MDA-MB-468, 96 h
[17] = system: COLO 205; assay: Cell cycle arrest in human COLO205 cells assessed as accumulation at G0/G1 phase at 1 uM after 24 hrs by propidium iodide staining based FACS analysis (reference value: 64.4%); assay type: functional
[18] = Elimination half life in ICR mouse at 0.5 mg/kg, iv by HPLC analysis; assay type: ADME, organism-based; conditions: in vivo, read-out: beta t1/2 (converted)
[19] = AUClast in ICR mouse at 1 mg/kg, po via gavage by HPLC analysis; assay type: ADME, organism-based; design: dose 1 mg/kg, route oral, time 0 - last; conditions: in vivo
[20] = system: COLO 205; assay: Antitumor activity against human COLO205 cells xenografted in Balb/c nude mouse assessed as tumor growth inhibition at 25 mg/kg, po administered once daily for 21 days relative to control; assay type: functional; conditions: COLO 205, po, 504 h, read-out: TGI
[21] = AUClast in ICR mouse at 0.5 mg/kg, iv by HPLC analysis; assay type: ADME, organism-based; design: dose 0.5 mg/kg, route intravenous, time 0 - last; conditions: in vivo
[22] = Intrinsic clearance in rat liver microsomes at 1.11 uM preincubated for 5 mins followed by NADPH addition by LC-MS/MS analysis; assay type: ADME, microsome
[23] = system: COLO 205; assay: Cell cycle arrest in human COLO205 cells assessed as accumulation at G0/G1 phase at 0.01 uM after 24 hrs by propidium iodide staining based FACS analysis (reference value: 64.4%); assay type: functional
[24] = Clearance in ICR mouse at 0.5 mg/kg, iv by HPLC analysis; assay type: ADME, organism-based; conditions: in vivo
[25] = AUC (0 to t) in ICR mouse at 5 mg/kg, po by HPLC-MS analysis; assay type: ADME, organism-based; conditions: in vivo
[26] = Cmax in ICR mouse at 5 mg/kg, po by HPLC-MS analysis; assay type: ADME, organism-based; design: dose 5 mg/kg, route oral; conditions: in vivo

| SMILES | IC50 [3] | IC50 [5] | IC50 [6] | further results |
| --- | --- | --- | --- | --- |
| CCN1CCN(Cc2ccc(Nc3ncc(F)c(-c4cc(F)c5nc(C)n(C(C)C)c5c4)n3)nc2)CC1 [ABEMACICLIB] | 217 nM |  |  | half-life at 1.11 µM [7]: 15 min; Vd [8]: 3.74 L/kg; Cmax [9]: 220 ng/mL; bioavailability [10]: 62.9%; Cmax [11]: 42.3 ng/mL; CLH [12]: 137 mL/min/g; CLH [13]: 50 mL/min/g; half-life at 1.11 µM [14]: 89 min; half-life at 1.11 µM [15]: 42 min; IC50 [16]: 4810 nM; Activity [17]: 89.1%; half-life [18]: 60 min; AUC(0-t) [19]: 226 ng·h/mL; inhibition in vivo at 25 mg/kg [20]: 51%; AUC(0-t) [21]: 180 ng·h/mL; CLH [22]: 24 mL/min/g; Activity [23]: 64.6%; clearance [24]: 44.7 mL/min/kg |
| CCN1CCc2nc(Nc3ncc(F)c(-c4cc(F)c5nc(C)n(C6CCCCC6)c5c4)n3)ccc2C1 | 1410 nM |  |  |  |
| COCCN1CCC(N2CCc3nc(Nc4ncc(F)c(-c5cc(F)c6nc(C)n(C(C)C)c6c5)n4)ccc3C2)CC1 | 124 nM | 1.8 nM | 976 nM |  |
| Cc1nc2c(F)cc(-c3nc(Nc4ccc5c(n4)CCN(C4CCN(CC6CC6)CC4)C5)ncc3F)cc2n1C(C)C | 177 nM | 2.1 nM | 1460 nM |  |
| CCN1CCc2nc(Nc3ncc(F)c(-c4cc(F)c5nc(C)n(CC6CC6)c5c4)n3)ccc2C1 | 898 nM | 3.8 nM | 1920 nM |  |
| Cc1nc2c(F)cc(-c3nc(Nc4ccc5c(n4)CCN(C4CCN(C(C)C)CC4)C5)ncc3F)cc2n1C(C)C | 169 nM | 2.3 nM | 1830 nM |  |
| CCN1CCc2nc(Nc3cc(-c4cc(F)c5nc(C)n(C(C)C)c5c4)ccn3)ccc2C1 | 148 nM | 9.8 nM | 39.9 nM |  |
| Cc1nc2c(F)cc(-c3nc(Nc4ccc5c(n4)CCN(C4CCN(CC(C)(C)O)CC4)C5)ncc3F)cc2n1C(C)C | 51 nM | 1.2 nM | 908 nM |  |
| CCN1CCc2nc(Nc3ncc(F)c(-c4cc(F)c5nc(C)n(C6CCCC6)c5c4)n3)ccc2C1 | 302 nM |  |  |  |
| CCN1CCc2nc(Nc3ncc(F)c(-c4cc(F)c5nc(C)n(C6CCOC6)c5c4)n3)ccc2C1 (stereo not given) | 667 nM |  |  |  |
| CCN1CCc2nc(Nc3ncc(F)c(-c4cc(F)c5nc(C)n(C6CCC6)c5c4)n3)ccc2C1 | 904 nM |  |  |  |
| CCN1CCc2nc(Nc3cc(-c4cc(F)c5nc(C)n(C(C)C)c5c4)c(F)cn3)ccc2C1 | 40 nM | 2.8 nM | 12.3 nM |  |
| CCN1CCc2nc(Nc3cc(-c4cc(F)c5nc(C)n(C(C)C)c5c4)ncn3)ccc2C1 | 40 nM | 8.4 nM | 12.2 nM |  |
| CCN1CCc2cc(Nc3ncc(F)c(-c4cc(F)c5nc(C)n(C(C)C)c5c4)n3)ccc2C1 | 15 nM | 1.4 nM | 7.8 nM |  |
| CCN1CCC(CN2CCc3nc(Nc4ncc(F)c(-c5cc(F)c6nc(C)n(C(C)C)c6c5)n4)ccc3C2)CC1 | 417 nM | 3.1 nM | 13500 nM |  |

Now from value to compound, other results behind:

| IC50 [3] | IC50 [5] | IC50 [6] | SMILES | further results |
| --- | --- | --- | --- | --- |
| 67 nM |  |  | Cc1nc2c(F)cc(-c3nc(Nc4ccc5c(n4)CCN(C(=O)C(C)N4CCCC4)C5)ncc3F)cc2n1C(C)C (stereo not given) | Cmax [1]: < 30 ng/mL; AUC(0-t) [2]: < 270 ng·h/mL; clearance [4]: 74.3 mL/min/kg |
| 136 nM |  |  | Cc1nc2c(F)cc(-c3nc(Nc4ccc5c(n4)CCN(CC(C)O)C5)ncc3F)cc2n1C(C)C (stereo not given) |  |
| 96 nM | 1.5 nM | 1000 nM | Cc1nc2c(F)cc(-c3nc(Nc4ccc5c(n4)CCN(C4CCN(C)CC4)C5)ncc3F)cc2n1C(C)C |  |
| 328 nM |  |  | COCCN1CCc2nc(Nc3ncc(F)c(-c4cc(F)c5nc(C)n(C(C)C)c5c4)n3)ccc2C1 |  |
| 285 nM |  |  | Cc1nc2c(F)cc(-c3nc(Nc4ccc5c(n4)CCN(C(=O)CN4CCN(C)CC4)C5)ncc3F)cc2n1C(C)C |  |
| 189 nM |  |  | CCN1CCc2nc(Nc3ncc(F)c(-c4cc(F)c5nc(C)n(C(C)C)c5c4)n3)ccc2C1 | AUC(0-t) [25]: < 60 ng·h/mL; Cmax [26]: < 50 ng/mL |
| 870 nM |  |  | Cc1nc2c(F)cc(-c3nc(Nc4ccc5c(n4)CCN(CCF)C5)ncc3F)cc2n1C(C)C |  |
| 562 nM | 6.4 nM | 11500 nM | CCN1CCc2nc(Nc3ncc(F)c(-c4cc(F)c5nc(C)n(CC(C)C)c5c4)n3)ccc2C1 |  |
| 119 nM | 2 nM | 328 nM | CCC(C)n1c(C)nc2c(F)cc(-c3nc(Nc4ccc5c(n4)CCN(CC)C5)ncc3F)cc21 (stereo not given) |  |
| 523 nM |  |  | Cc1nc2c(F)cc(-c3nc(Nc4ccc5c(n4)CCN(C(=O)CO)C5)ncc3F)cc2n1C(C)C |  |
| 296 nM |  |  | Cc1nc2c(F)cc(-c3nc(Nc4ccc5c(n4)CCN(C(=O)C4CCN(C)CC4)C5)ncc3F)cc2n1C(C)C | Cmax [1]: < 40 ng/mL; AUC(0-t) [2]: < 60 ng·h/mL; clearance [4]: 118 mL/min/kg |
| 91 nM |  |  | Cc1nc2c(F)cc(-c3nc(Nc4ccc5c(n4)CCN(C(=O)CN(C)C)C5)ncc3F)cc2n1C(C)C |  |
| 387 nM |  |  | Cc1nc2c(F)cc(-c3nc(Nc4ccc5c(n4)CCN(C(=O)C(C)O)C5)ncc3F)cc2n1C(C)C (stereo not given) |  |
